Test results from patent US10876088B2, “Modular organ microphysiological system with integrated pumping, leveling, and sensing” (Massachusetts Institute of Technology, priority 2016, dated 2020).

Tests used:
[1] = oral, in vivo; read-out: maximum measured plasma concentration, Cmax; cited from earlier work
[2] = human, in vivo
7-way MPS platform = tested on: 7-way MPS platform
Protocol: The 7-way platform include gut (immune-competent), liver (immune-competent), lung, endometrium, cardiac, brain, and pancreas MPSs, and was assessed for survivability and function over a 3-week period. Each MPS was differentiated or matured in isolation prior to the interaction study. Platforms were run at a systemic flow rate of Qmix=10 mL/day, with flow partitioning. During the medium changes, a basal common medium was used for the gut, lung, liver, and endometrium MPSs, while the new MPS were supplied with their preferred maintenance media. Each basal medium was then allowed to mix throughout the course of the interaction, with media changes at 48-hour intervals. Functionality of each MPS was evaluated every 2-4 days up to 3 weeks, in comparison to isolated MPSs to benchmark the non-interacting MPS functions.

endometrium MPS = experiment: Drug toxicity in endometrium MPS; format: cell-based
Protocol: An exemplary endometrium model of cell culture system in a […]® on the MPS platform includes hydrogel encapsulating stromal cells and epithelial cells on top surface of the hydrogel were cultured on the apical side of the […]®. […] The cell line used was Ishikawa human stage 1 adenocarincoma cell line, which were estrogen and progesterone receptor positive, polarized in matrigel (Chitcholtan et al., Exp Cell Research, (2013)) or functionalized PEG gels, and had low/variable secretion of glycodelin. […] The cell line used was human tert-immortalized cell line (tHESC), which was highly proliferative and stable, had low/variable secretion of prolactin or IGF-BP1 without strong decidualization cues, and could be quiesced in PEG gels.
An endometrium MPS model was prepared and studied.

[3] = tested on: immune-competent liver MPS (hepatocytes and Kupffer cells)
Protocol: (§1) Metabolic and immunologically competent 3D cryopreserved human hepatocytes and kupffer cells were cocultured.
An immune-competent liver MPS model was prepared and studied.

[4] = tested on: immune-competent gut-liver interacted MPS; experiment: Gut-liver 2-way MPS, tolcapone added to gut ("oral"); format: cell-based, human
Protocol: Tolcapone was added to the gut MPS to mimick “oral” administration. Metrics were an volume-weighted average from the 3 media compartments: Signalsystemic=Signalapical, gut*Vapical, gut+Signalbasal, gut*Vbasal, gut+Signalliver*Vliver.

[5] = tested on: immune-competent gut MPS (Caco2, HT29-MTX, dendritic cells)
[6] = tested on: hepatocyte-Kupffer cocultured liver MPS; experiment: Hydrocortisone effect on cocultured liver MPS; format: cell-based, human
Protocol: as §1
The secretions of interleukin 6 (IL-6) and tumor necrosis factor alpha (TNFα) of the cocultured liver MPS were measured. The reproducibility of IL-6 response to LPS stimulus was determined. A physiologically-relevant (relatively low) level of cortisol was used in the common media.

[7] = tested on: hepatocyte-Kupffer cell co-cultures; experiment: LPS stimulus of hepatocyte-Kupffer co-cultures; format: cell-based, human

O=C(O)Cc1ccccc1Nc1c(Cl)cccc1Cl [Diclofenac, diclofenac]
Cmax [1]: 2 to 6 µM | free drug elimination per cell rate constant [2]: 1.76×10^−10 (cell*min)^−1 | absorption and distribution across MPS compartments (7-way MPS platform): absorbed across the gut epithelial barrier | unbound intrinsic clearance CL_int(u) (7-way MPS platform; human): 13.90 µL/min | loss of function and cellular death (endometrium MPS): loss of function correlating with cellular death | liver functions [3]: impaired liver functions | cell death ([3]; immune-competent liver MPS): cell death was minimal

Cc1ccc(C(=O)c2cc(O)c(O)c([N+](=O)[O-])c2)cc1 [Tolcapone]
generic cell death marker [4]: insensitive | gut and liver function [4]: MPS-specific loss of function | cell death markers ([4]; MPS-specific markers): suffered from MPS-specific cell death markers | cell death [5]: severe cellular death | epithelial barrier integrity / epithelial function [5]: complete loss of epithelial function | loss of function and cellular death (endometrium MPS): loss of function correlating with cellular death | cell death ([3]; immune-competent liver MPS): caused cell death | mitochondrial activity ([3]; immune-competent liver MPS): decreased mitochondrial activity

C[C@]12CCC(=O)C=C1CC[C@@H]1[C@@H]2[C@@H](O)C[C@@]2(C)[C@H]1CC[C@]2(O)C(=O)CO [Hydrocortisone]
CYP450 activity dependence on hydrocortisone levels ([6]; 21 day cultures): sensitive | differentiated function ([6]; cocultured liver MPS): enhanced differentiated function | inflammatory response ([6]; cocultured liver MPS): suppressed inflammatory response

Lipopolysaccharide
lowest LPS stimulus to which co-cultures were responsive [7]: ≥ 0.01 µg/mL
